# Assays:
# Ras-GTP = test: GTPase pull-down assay (GST-Raf1-RBD) in K562 cells; assay type: cell-based, human; details: 50 μM, 2 minutes to 4 hours
# Experimental: Lysate with 500 μg protein were used to determined the Ras-GTP content by the Glutathione S-transferase(GST)-RBD(Ras-binding domain of Raf) pull down assay. The treated and control cells were lysed in lysis buffer (25 mMTris-HCl, pH7.5, 150 mM NaCl, 5 mM MgCl2, 1% NP-40, 1 mM DTT and 5% glycerol) for 5 minutes at 4° C. Soluble cell lysates were obtained by centrifuged at 17000 g for 5 minutes. 500 μg cell lysate were collected and incubated with 80 μg GST-Raf1-RBD in 50 mM Tris-HCl, pH7.2, 150 mM NaCl, 0.5% Triton X-100, 5 mM MgCl2, 1 m MDTT and 10% glycerol for 1 hour at 4° C. The beads were washed with lysis buffer for 3 times and then resuspended and boiled in 2×sample buffer at 100° C. for 5 minutes. 25 μsupernatants were collected by centrifuged at 7200 g for 2 minutes and then resolved in 15% SDS-PAGE followed by western blot analysis using anti-Ras antibody. • 6.1.8 Laboratory-Scale Preparation of Cucurbitacin B and Cucurbitacin D
# In order to further investigate if cucurbitacin B block the Stat3 activation is truly through Erk pathway in K562 cells, the ability of cucurbitacin B to inhibit the Ras/Raf/Mek/Erk pathway was determined by measuring Ras-GTP, phosphorylation of c-Raf, Mek1/2, Erk1/2 and Elk-1 in K562 cells. The cells were incubated with 50 μM cucurbitacin B for the indicated time intervals (2 minutes, 5 minutes, 10 minutes, 30 minutes, 1 hour and 4 hours). […]
# [1] = system: HepG2-resistant (HepG2-R); test: Hollow fiber assay, HepG2-resistant; assay type: in vivo, nude mice; details: up to 14 days
# Experimental: The hollow fiber assay (HFA) was developed by the NCI as a high-throughput, preliminary in vivo screening assay for the evaluation of anti-cancer agents. Human liver cancer cell lines HepG2 and HepG2-resistant (HepG2-R) were in vitro cultured inside hollow fibers for a short term (48 hours), followed by in vivo implantation at s.c. sites of the nude mice. Mice were treated with negative control (0.5% CMC), positive control (10 mg/kg 5-Fluorouracil) and cucurbitacin B (0.2 mg/kg) for up to 14 days. Then the fibers were excised and analyzed for cell viability by MTT assay. The efficacies of cucurbitacin B against HepG2 and HepG2-R were expressed as the percentage of the results obtained in the negative control group.
# [2] = Gross and microscopic examination of organs of treated mice; assay type: in vivo, nude mice; details: i.p. 1 mg/kg three times a week, six weeks
# Experimental: One million human MDA-MB-231 breast cancer cells/Matrigel (vol 1:1) were inoculated isotopically into the breasts of nude mice. The mice received intraperitoneal injections of 1 mg/ml of cucurbitacin B 3 times a week starting on the day after inoculation of the cells. The longitudinal and the transverse diameter, and the height were measured once a week. The volume was calculated by multiplying these elements, and the relative tumor size was determined by dividing the product by the initial volume. After 6 weeks, the mice were sacrificed to weigh the dissected tumors. At that moment, blood was taken for analysis, where organs and tumors were inspected, dissected, fixed and stained with hematoxylin-eosin and/or Ki-67. Data were expressed as mean±SD. Statistical analysis was performed by student's t test.
# Six weeks after i.p. treatment with either vehicle or cucurbitacin B 1 mg/kg three times a week, mice were euthanized and tumors were observed and weighed. Results represented the mean and SD of 9 treated and 9 control tumors. Statistical analysis was performed by student's t test.
# HL60 and U937 cells = test: Cell cycle analysis by flow cytometry, myeloid leukemia cells; assay type: cell-based, human; details: 96 hours
# Experimental: HL60 and U937 cells were incubated with vary doses of cucurbitacin B for 96 hours at 37° C. For analysis of cell differentiaion, cells were then incubated with either R-phycoerythrin-conjugated murine anti-human CD11b antibody (DAKO, Carpinteria, Calif.). For analysis of cell cycle, cells were washed and fixed with chilled methanol, and incubated on ice for 30 minutes prior to staining with propidium iodide. All analyses were performed by flow cytometry.
# hsp27 = test: Western blot of hsp27 in HepG2, HT29 and MCF-7 cells; assay type: cell-based, human
# Experimental: The human cancer cells line were serum starved for 18 hours prior to CuB/CuD treatment. Cells were incubated in a 6-well plate filled with 5 ml growth medium (RPMI with 0.2% FBS and 1% PS) at the cell density of 1×10^5 cells/ml, in the presence or absence of two different dosages of CuB/CuD for various time intervals. The drug treatment was terminated by centrifugation at 1,500 rpm for 5 minutes and the cells were rinsed twice with phosphate-buffered saline and lysed at 4° C. in a lysis buffer containing 50 mM Tris-HCl, pH7.5, 100 mM NaCl, 5 mM EDTA, 40 mM NaP2O7, 1% Triton X-100, 1 mM dithiothreitol, 200 μM Na3VO4, 100 uM phenylmethysufonyl fluoride, 2 μg/ml leupeptin, 4 μg/ml aprotinin and 0.7 μg/ml pepstatin. The insoluble protein lysate were removed by centrifugation for 10 minutes at 13,000 rpm. Fifteen micrograms of protein lysate was resolved using 10% SDS-polyacryamide gel electrophoresis (PAGE) and then subjected to western blot anaylsis. Western blots were performed with anti-Stat3, anti-Erk1/2 and anti-hsp27 antibodies specific for phosphor- and total Stat3, Erk and hsp27 proteins. The protein bands were then visualized with the Enhanced Chemiluminescence Plus (ECL Plus) detection system (Amersham). • 6.2.8.1 Inhibition Effect Cucurbitacin B/Cucurbitacin D on Stat3 Activation in HepG2 and HT29 Cells
# Cells were incubated either with CuB or CuD (25 ug/ml or the dosage of IC50) for various time intervals (5, 10 or 30 mins, 1 or 4 hours). The Stat3 activation was detected by western blot.
# Panc-1 and SW cells = test: Annexin V / PI apoptosis by flow cytometry, pancreatic cells; assay type: cell-based, human; details: 48 h, increasing concentration
# Experimental: Panc-1 and SW cells was incubated with vary doses of cucurbitacin B for 48 h at 37° C. At the end of treatment, cells were washed twice with cold PBS and resuspended at 2×10^6 cells/ml in 1×binding buffer. The cells were then stained with Annexin V and propidium iodide. All analyses were performed by flow cytometry.
smiles,measurement,setting,value
CC(=O)OC(C)(C)/C=C/C(=O)[C@](C)(O)C1[C@H](O)C[C@@]2(C)C3CC=C4C(C[C@H](O)C(=O)C4(C)C)[C@]3(C)C(=O)C[C@]12C (stereo partly drawn) [cucurbitacin B],Ras-GTP activation,Ras-GTP,no significant change
same,Cell growth rate compared with the negative control group,[1]; 0.2 mg/kg p.o.,about 75%
same,cell growth in hollow fibers,"[1]; 0.2 mg/kg, i.p., s.c. and p.o.",potently inhibited
same,"gross and microscopic examination of the liver, spleen, and peritoneum",[2],no significant difference
same,cell cycle effect,HL60 and U937 cells,significant S-phase cell cycle arrest
same,Hsp27 activation,"hsp27; HT29, 10 minutes",significant up-regulation
same,Hsp27 activation,"hsp27; HepG2, 30 minutes",significant up-regulation
same,Hsp27 activation,"hsp27; MCF-7, 4 hours",significant up-regulation
same,apoptotic cells,Panc-1 and SW cells,the percentage of apoptic cells rise

# Reference: patent US20090247495A1, “CU[…] AND USES THEREOF” (priority 2007, published 2009)
